{
  "source": "patent US12447137B2",
  "about": "“Composition for prevention, amelioration, or treatment of cancer” (EWHA UNIVERSITY—INDUSTRY COLLABORATION FOUNDATION, priority 2019, dated 2025)",
  "key": {"[1]": {"test_system": "EMT protein markers α-SMA, Vimentin, ZEB-1 and Slug", "test": "EMT protein marker Western blot, TGF-β1-treated MDA-MB-231 cells", "type": "cell-based, human", "details": "MDA-MB-231, with TGF-β1; FIG. 7A", "protocol": "The culture medium of the breast cancer cell line of Experimental Method 1 was replaced with a serum-free medium. Then, the cells were treated with 2 ng/mL of TGF-β1 and the compound of Preparation Example 6 and cultured for 20 to 24 hours. Thereafter, as described in Experimental Method 3, the expression level of the protein was measured using an antibody specific for the EMT-related protein."}, "p-AMPK (Thr172) [2]": {"test_system": "p-AMPK (Thr172)", "test": "AMPK activation by p-AMPK (Thr172) Western blot in brain cancer cell lines", "type": "cell-based, human", "details": "10 μM, 12 hours, compared to untreated group", "protocol": "(§1) [3-2] The three breast cancer cell lines (4T1, BT549, and MDA-MB-231) of Experimental Method 1 were treated with each of the compound of Production Example 6 and 13 compounds, including the compounds of Production Examples 1 to 5 and 8 to 15 having a similar structure (YE-01, 02, 03, 04, 05, 08, 09, 10, 11, 12, 13, 14 and 15), at a concentration of 10 μM, and then cultured for 24 hours. In addition, each of two types of gastric cancer cell lines, brain cancer cell lines and pancreatic cancer cell lines was treated with the compound of Production Example 6 or the compound of Production Example 8 having a similar structure at a concentration of 10 μM and then cultured for 12 hours. Thereafter, the cells were harvested and lysed in RIPA buffer, and the protein was electrophoresed by SDS-PAGE, and then the expression level of the protein was analyzed using antibodies specific for AMPK and phospho-AMPK (Thr172). GAPDH or β-actin was used as a loading control for protein quantification."}, "[3]": {"test_system": "4T1-luc orthotopic graft (fat pad, s.c.)", "test": "Survival rate in orthotopic animal model", "type": "in vivo, mouse", "details": "20 mg/kg intraperitoneal once every 3 days, 6 times; compared to Vehicle; FIG. 8D", "excerpt": "(§2) After 4-week-old athymic nude mice (female) were purchased, only healthy mice were selected while the mice were adapted to the environment of the animal breeding room for 7 days. For identification of each mouse, the ears were marked using an ear punch. In addition, the breeding box was identified by attaching a mouse identification card describing the test number, test substance name, test item, receipt date, test date, test content, and the person in charge of the test. The environment of the animal breeding room was maintained at a temperature of 22±3° C., a relative humidity of 50±20%, 10 to 15 ventilations/hour, a 12-hour light (8:30 to 20:30)/dark cycle, and an illuminance of 150 to 300 lux. In addition, the animals were fed feed and drinking water during the breeding period, and quarantined during the acclimatization and testing periods.\nThe nude mice were anesthetized by inhalation with 2.5% isoflurane, and then injected with the mouse breast cancer cell line 4T1-luc of Experimental Method 1 by a sterile syringe. […]\nDuring a period ranging from the day the mouse breast cancer cell line 4T1-luc was injected to the end of the experiment (the date of death), the volume of the tumor was measured once every 3 days and the survival rate of the animal model was checked every day. […]"}, "4T1 cell line": {"test_system": "4T1 cell line", "test": "Flow cytometry assay (Annexin V / PI)", "type": "cell-based, mouse", "details": "4T1, 0 to 30 μM, 24 hours; FIG. 6", "protocol": "(§3) The breast cancer cell line of Experimental Method 1 was treated with the compound of Production Example 6 at a concentration of 0 to 30 μM and cultured for 24 hours. Thereafter, the cultured cells were detached by trypsin, and then double-stained with Annexin V; recognizing apoptosis) and PI (propidium iodide; recognizing cell necrosis), and then the pattern and level of apoptosis were measured using flow cytometry."}, "[4]": {"test": "Body weight / toxicity in xenograft animal model", "type": "in vivo, mouse", "details": "4 mg/kg tail vein (IV) once every 3 days, 6 times; FIG. 8C", "excerpt": "as §2, with “periods. […]” for “periods.”\n(§4) During a period ranging from the day the mouse breast cancer cell line 4T1-luc was injected to the end of the experiment (dissection date), the tumor volume was measured every day. […] In order to confirm the tumor regression effect, the volume of the tumor was measured before administration of the compound of Production Example 6, and at day 28 after the first administration of the compound of Production Example 6, the animals were euthanized, and the primary tumors were excised and their volumes were compared."}, "MDA-MB-231 cell line [5]": {"test_system": "MDA-MB-231 cell line", "test": "Clonogenic assay", "type": "cell-based, human", "details": "MDA-MB-231, 10 μM; FIG. 2B", "protocol": "(§5) The breast cancer cell line of Experimental Method 1 was dispensed into a 6-well plate at a density of 1 to 2×10^3 cells/well. After the cells were sufficiently attached, they were treated with the compound of Production Example 6 at a concentration of 0 to 30 μM and cultured for 10 days to 14 days. Next, the cultured cells were fixed with 4% formaldehyde and stained with 1% crystal violet, and the colonies were counted under a microscope."}, "BT549 cell line": {"test_system": "BT549 cell line", "test": "Clonogenic assay", "type": "cell-based, human", "details": "BT549, 10 μM; FIG. 2B", "protocol": "as §5"}, "[6]": {"test_system": "4T1-luc xenograft (flank, s.c.)", "test": "Tumor regression in xenograft animal model", "type": "in vivo, mouse", "details": "4 mg/kg tail vein (IV) once every 3 days, 6 times; compared to Vehicle; FIG. 8A, 8B", "excerpt": "as §2, with “periods. […]” for “periods.”\nas §4"}, "p-AMPK (Thr172) [7]": {"test_system": "p-AMPK (Thr172)", "test": "AMPK activation by p-AMPK (Thr172) Western blot in MDA-MB-231 cells", "type": "cell-based, human", "details": "24 hours", "protocol": "[3-1] The breast cancer cell line of Experimental Method 1 above was treated with the compound of Production Example 6 at a concentration of 0 to 30 μM, and then cultured for 24 hours. Thereafter, the cells were harvested and lysed in RIPA buffer, and the protein was electrophoresed by SDS-PAGE, and then the expression level of the protein was analyzed using antibodies specific for AMPK and phospho-AMPK (Thr172). GAPDH or β-actin was used as a loading control for protein quantification.\nas §1"}, "MDA-MB-231 cell line [8]": {"test_system": "MDA-MB-231 cell line", "test": "Flow cytometry assay (Annexin V / PI)", "type": "cell-based, human", "details": "MDA-MB-231, 0 to 30 μM, 24 hours; FIG. 6", "protocol": "as §3"}},
  "data": [
    {"smiles": "COc1ccc(OC)c(/C=C/C(=O)c2ccc(NS(=O)(=O)c3ccc(Cl)cc3)cc2)c1", "note": "[Production Example 6, (E)-4-chloro-N-(4-(3-(2,5-dimethoxyphenyl)acryloyl)phenyl)benzenesulfonamide]", "values": [
      {"measurement": "Slug protein", "setting": "[1]", "value": "decreased"},
      {"measurement": "Vimentin protein", "setting": "[1]", "value": "decreased"},
      {"measurement": "ZEB-1 protein", "setting": "[1]", "value": "decreased"},
      {"measurement": "α-SMA protein", "setting": "[1]", "value": "decreased"},
      {"measurement": "expression of p-AMPK", "setting": "p-AMPK (Thr172) [2]", "value": "increased"},
      {"measurement": "survival rate", "setting": "[3]", "value": "significantly improved"},
      {"measurement": "cells stained with annexin V or PI", "setting": "4T1 cell line", "value": "increased in a concentration-dependent manner"},
      {"measurement": "weight loss depending on the breeding time", "setting": "[4]", "value": "no weight loss"},
      {"measurement": "colony formation", "setting": "MDA-MB-231 cell line [5]", "value": "significantly reduced"},
      {"measurement": "colony formation", "setting": "BT549 cell line", "value": "significantly reduced"},
      {"measurement": "volume of the tumor", "setting": "[6]", "value": "decreased"},
      {"measurement": "phospho-AMPK protein", "setting": "p-AMPK (Thr172) [7]; MDA-MB-231, 0 to 30 μM, FIG. 5", "value": "increased in a concentration-dependent manner"},
      {"measurement": "p-AMPK level", "setting": "p-AMPK (Thr172) [7]; MDA-MB-231, 10 μM, FIG. 3B", "value": "effectively increased"},
      {"measurement": "cells stained with annexin V or PI", "setting": "MDA-MB-231 cell line [8]", "value": "increased in a concentration-dependent manner"}
    ]}
  ]
}
